According to patent US12653788B2, “Pharmaceutical composition of a pyrazole compound dispersed in a polymer matrix” (Intervet Inc., priority 2019, dated 2026):

Legend:
[1] = Oral bioavailability of the compound in dogs; settings: dog, in vivo
Description: (§1) The poor water solubility results in poor oral bioavailability in dogs, often below 50%. The log P of the compound of Formula (I) is calculated to be 1.25 (Chem Draw and Insight for Excel). To increase solubilization and promote bioavailability, Applicants have dosed the compound in the amorphous state as part of an amorphous solid dispersion (ASD). […] Therefore, the ASD was manufactured by co-precipitation or cPAD (co-precipitated amorphous dispersion). In this process, the compound and a polymer were dissolved into a solvent. The compound-polymer solution was then rapidly precipitated in an anti-solvent under high shear in a rotor-stator homogenizer. and the compound-polymer amorphous solid dispersion was formed.

cIL-31 induced pruritus = settings: with respect to placebo, similar magnitude to oclacitinib (Apoquel); cited from earlier work
[2] = Solubility of the compound (water, volatile solvents); assay type: physicochemical
Description: as §1

[3] = In vitro anti-nucleating polymer screen in simulated gastric fluid (PION UV probe); assay type: physicochemical; settings: only simulated gastric fluid (SGF) pH 1.8, no polymer; 2 hours, 272 nm
Description: FIG. 3—Several anti-nucleating polymers were assessed for ability to maintain the compound of Formula (I) in an in vitro screen.
In an attempt to improve the bioavailability of the compound of Formula (I) in animals administered in the fed state, anti-nucleating agents were added to the pharmaceutical composition to decrease the potential for crystallization of the compound. Several anti-nucleation polymers were assessed for ability to maintain the compound of Formula (I) in an in vitro screen. 0.5% solution of each anti-nucleating polymer was prepared in simulated gastric fluid, pH 1.8. 75 uL of 10 mg/mL API in DMSO was added into 5 mL of the 0.5% polymer solution and monitored by PION UV probe for 2 hours at 272 nm. […] When the other polymers were used, the concentration of the compound of Formula (I) was initially maintained but finally was reduced before the 2 hour test was completed.

## COc1cc(Nc2nn([C@H]3COCC[C@@H]3C#N)cc2C(N)=O)cc(F)n1 [compound of Formula (I), 1-[(3R,4S)-4-cyanotetrahydropyran-3-yl]-3-[(2-fluoro-6-methoxy-4-pyridyl)amino]pyrazole-4-carboxamide]
[1]
  bioavailability: < 50%
cIL-31 induced pruritus
  suppression of pruritus: significantly suppressed pruritus
[2]; isopropanol, acetone, dichloromethane
  solubility in volatile solvents: low solubility
[2]; water
  water solubility: poorly water soluble
[3]
  concentration of the compound of Formula (I) in control: dropped almost immediately
